Data published in the PolyMetriX glass transition set.
± gives the standard deviation of the reports.

glass transition temperature [°C] | SMILES
50.00 | *CC(*)(C)C(=O)OCCCCCCOc1ccc(C(=O)Oc2ccc(/N=N/c3ccc(Cl)cc3)c3ccccc23)cc1 (repeat unit)
58.00 | */C=C/c1cc(OCCCCCCCC)c(*)cc1OC (repeat unit)
275.00 | *c1ccc(Oc2ccc(-c3ccc(Oc4ccc(N5C(=O)c6cccc(Oc7cc(C(C)(C)C)c(Oc8cccc9c8C(=O)N(*)C9=O)cc7C(C)(C)C)c6C5=O)cc4)cc3)cc2)cc1 (repeat unit)
269.50 | *Oc1ccc(C2(c3ccc(OC(=O)c4cccc(C(*)=O)c4)cc3)c3ccccc3-c3ccccc32)cc1 (repeat unit)
50.10 | *CC(*)C(=O)n1c2ccccc2c2ccccc21 (repeat unit)
220.50 | *c1ccc(Oc2ccc(N3C(=O)c4ccc(Oc5cc6ccccc6cc5Oc5ccc6c(c5)C(=O)N(*)C6=O)cc4C3=O)cc2)cc1 (repeat unit)
330.00 | *c1ccc(-c2ccc(-c3c(-c4ccccc4)nc4ccc(Oc5ccc6nc(-c7ccccc7)c(*)c(-c7ccccc7)c6c5)cc4c3-c3ccccc3)cc2)cc1 (repeat unit)
147.00 | *Oc1ccc(Oc2ccc(OC(=O)c3ccccc3-c3ccccc3C(*)=O)cc2)cc1 (repeat unit)
17.00 | *c1sc(*)c(CCCCCCN(CC)c2ccc(/N=N/c3ccc([N+](=O)[O-])cc3)cc2)c1CCCCCC (repeat unit)
335.00 | *Oc1ccc(C(=O)Nc2cc(NC(=O)c3ccc(*)cc3)cc(-c3nc4ccccc4[nH]3)c2)cc1 (repeat unit)
186.00 | *Oc1ccc(S(=O)(=O)c2ccc(Oc3ccc(/C=C4\CCCC/C(=C\c5ccc(*)cc5)C4=O)cc3)cc2)cc1 (repeat unit)
150.00 | *CCCCC(=O)NNC(=O)c1ccc(C(=O)NNC(=O)CCCCOc2ccc(O*)c(C)c2)cc1 (repeat unit)
195.50 | *Oc1ccc(Oc2ccc(NC(=O)c3cc(C(=O)Nc4ccc(*)cc4)cc(C(C)(C)C)c3)cc2)cc1 (repeat unit)
50.50 | *CCCCCCCCCOC(=O)c1ccc(-c2ccc(C(=O)O*)cc2)cc1 (repeat unit)
285.00 | *Nc1ccc(Br)cc1-c1ccc(NC(=O)c2ccc(C(*)=O)cc2)cc1 (repeat unit)
243.00 | *c1ccc(-c2cc(-c3ccc(-c4ccccc4)cc3)cc(-c3ccc(N4C(=O)c5ccc(NC(=O)Nc6ccc(NC(=O)Nc7ccc8c(c7)C(=O)N(*)C8=O)cc6)cc5C4=O)cc3)n2)cc1 (repeat unit)
229.00 | *c1ccc(Oc2ccc(C(=O)c3ccc(Oc4ccc(-c5cc(*)[nH]n5)cc4)cc3)cc2)cc1 (repeat unit)
239.00 | *c1cccc(N2C(=O)c3ccc(Oc4ccc(C(=O)c5ccc(Oc6ccc7c(c6)C(=O)N(*)C7=O)cc5)cc4)cc3C2=O)c1 (repeat unit)
350.00 | *c1ccc(-c2ccc(-c3cc(-c4ccccc4)c4cc(C5(c6ccc7nc(*)cc(-c8ccccc8)c7c6)c6ccccc6C(=O)c6ccccc65)ccc4n3)cc2)cc1 (repeat unit)
165.00 | *Oc1ccc(C(c2ccc(OC(*)=O)cc2)C(Cl)Cl)cc1 (repeat unit)

glass transition temperature [°C] | SMILES
146 ± 1.3 | *Oc1ccc(Oc2ccc(C(=O)c3ccc(*)cc3)cc2)cc1 (repeat unit)
280.00 | *c1ccc2c(c1)C(=O)N(c1ccc(Oc3cccc(Oc4ccc(N5C(=O)c6ccc(C(*)(C(F)(F)F)C(F)(F)F)cc6C5=O)cc4)c3C#N)cc1)C2=O (repeat unit)
190.00 | *c1ccc(Oc2ccc(C(C)(C)c3ccc(Oc4ccc(-c5nnc(*)n5-c5cccc(C(F)(F)F)c5)cc4)cc3)cc2)cc1 (repeat unit)
122.00 | *Oc1ccc(C(C)(C)c2ccc(OC(=O)c3cccc(C(F)(F)C(F)(F)C(F)(F)c4cccc(C(*)=O)c4)c3)cc2)cc1 (repeat unit)
77.00 | *CCCCCCNC(=O)CCc1ccc(C(C)CC(=O)N*)cc1 (repeat unit)
331.00 | *C(=O)c1ccc2c(c1)C(=O)N(c1ccc3c(c1)C(=O)c1cc(N4C(=O)c5ccc(*)cc5C4=O)ccc1-3)C2=O (repeat unit)
254.50 | *C(=O)c1cc(C(=O)c2ccc3c(c2)C(=O)N(c2ccc(Oc4ccc(S(=O)(=O)c5ccc(Oc6ccc(N7C(=O)c8ccc(*)cc8C7=O)cc6)cc5)cc4)cc2)C3=O)cc(C(C)(C)C)c1 (repeat unit)
30.00 | *c1ccc(-c2ccc(-c3ccc([Si](*)(CCCC)CCCC)s3)s2)s1 (repeat unit)
56.00 | *O[Si](*)(c1ccccc1)c1ccc(OC(C)(C)C)cc1 (repeat unit)
291.00 | *c1cc(C(=O)NCCCC)cc(N2C(=O)c3ccc(-c4ccc5c(c4)C(=O)N(*)C5=O)cc3C2=O)c1 (repeat unit)
14.30 | *CCCCOCCCCOCCCCOC(=O)c1ccc(/N=C/c2cc(OCCCCCC)c(/C=C/c3cc(OCCCCCC)c(/C=C/c4cc(OCCCCCC)c(/C=N/c5ccc(C(=O)O*)cc5)cc4OCCCCCC)cc3OCCCCCC)cc2OCCCCCC)cc1 (repeat unit)
212.50 | *CC(*)c1cc(-c2ccc(C(=O)OC(C)CC)cc2)ccc1-c1ccc(C(=O)OC(C)CC)cc1 (repeat unit)
180.00 | *CCCCCCCCCCc1ccc(-c2c(-c3ccccc3)cc(-c3cccc(-c4cc(-c5ccccc5)c(-c5ccc(*)cc5)c(-c5ccccc5)c4-c4ccccc4)c3)c(-c3ccccc3)c2-c2ccccc2)cc1 (repeat unit)
41.00 | *Oc1ccc(OC(=O)c2cc(OCCCCCCCCOCC3CCCN3c3ccc([N+](=O)[O-])cc3)c(C(*)=O)cc2OCCCCCCCCOCC2CCCN2c2ccc([N+](=O)[O-])cc2)cc1 (repeat unit)
82.40 | *CC(OC(=O)C(Cc1ccccc1)NC(=O)OC(C)(C)C)C(COC(=O)O*)OC(=O)C(Cc1ccccc1)NC(=O)OC(C)(C)C (repeat unit)
240.00 | *c1ccc(Oc2ccc(N3C(=O)c4ccc(Oc5cccc6c(Oc7ccc8c(c7)C(=O)N(*)C8=O)cccc56)cc4C3=O)cc2)cc1 (repeat unit)
273.00 | *Nc1cccc(NC(=O)c2ccc(C(=O)Nc3ccc(C(=O)NC(*)=S)cc3)cc2)c1 (repeat unit)
188.00 | *Cc1cc(CNC(=O)c2cccc(C(=O)N*)c2)cc(C(C)(C)C)c1 (repeat unit)
94.30 | *Oc1ccc(OC(=O)c2ccc(OCCCCCCCCCCCCOc3ccc(C(*)=O)cc3)cc2)cc1/C=C/c1ccncc1 (repeat unit)

Continued, compound first:

SMILES | glass transition temperature [°C]
*OP(=O)(Oc1ccc(C)cc1)Oc1ccc(S(=O)(=O)c2ccc(*)cc2)cc1 (repeat unit) | 66.00
*CCN(*)C(=O)c1c(F)c(F)c(F)c(F)c1F (repeat unit) | 136.00
*C1CCC(N2C(=O)c3ccc(-c4ccc5c(c4)C(=O)N(*)C5=O)cc3C2=O)CC1 (repeat unit) | 360.00
*CCOCCOC(=O)CCSCCC(=O)O* (repeat unit) | -33.00
*O[Si](*)(C)CCCOCCOCCOCCOC (repeat unit) | -64.21
*Oc1c(C)cc(C(C)(C)c2cc(C)c(OC(*)=O)c(C)c2)cc1C (repeat unit) | 193.00
*/C=C/C1CC(*)C2C(=O)N(c3cccc(C)c3)C(=O)C12 (repeat unit) | 206.00
*CC(*)C(=O)OCCSCC (repeat unit) | -71.00
*C(F)(F)C1(*)OC(F)(F)C(F)(F)O1 (repeat unit) | 108.00
*c1ccc(-c2ccc(-n3c(=O)c4cc5c(=O)n(*)c(=O)c5c(C(F)(F)F)c4c3=O)cc2C)c(C)c1 (repeat unit) | 373.00
*CC(*)CCCI (repeat unit) | 30.00
*/C=C/C1CC(*)C2C3CCC(C3)C12 (repeat unit) | 207.40
*O[Si](C)(C)c1cccc2c([Si](*)(C)C)cccc12 (repeat unit) | 62.00
*C(=O)c1ccc2c(c1)C(=O)N(CC1(C)CC(N3C(=O)c4ccc(*)cc4C3=O)CC(C)(C)C1)C2=O (repeat unit) | 275.00
*CC(*)N1CCCCCC1=O (repeat unit) | 174.60
*C(C)C(*)C(=O)OC12CC3CC(C)(CC(C)(C3)C1)C2 (repeat unit) | 194.50
*C1C2CC(C1*)C([Si](C)(C)C)C2 (repeat unit) | 303.00
*c1c(C)cc(C(c2cccc(C(F)(F)F)c2)c2cc(C)c(N3C(=O)c4ccc(-c5ccc6c(c5)C(=O)N(*)C6=O)cc4C3=O)c(C)c2)cc1C (repeat unit) | 312.90
*CC(*)(CC(=O)OC)C(=O)OC12CC3CC(C)(CC(C)(C3)C1)C2 (repeat unit) | 144.00
*c1ccc(-c2ccc(-c3ccc([Si](C)(C)[Si](*)(C)C)s3)s2)s1 (repeat unit) | 45.00
*CC(*)c1ccc(CCCC)cc1 (repeat unit) [Poly(p-n-butyl styrene) ] | 6 ± 0.6
*C(=O)c1ccc(N(*)C)cc1 (repeat unit) | 197.00
*/C(Cl)=C(/*)c1ccccc1 (repeat unit) | 215.00
*OP(=O)(Oc1ccc(-c2ccc(*)cc2)cc1)OC1CCCCC1 (repeat unit) | 116.00
*CCCCCCCCCCC(=O)NCCc1ccc(CCNC(=O)CCCCCCCCCCS*)cc1 (repeat unit) | 58.00
*CCCCNC(=O)C(OC)C(OC)C(=O)N* (repeat unit) | 100.00
*CC(*)(C)C(=O)OC1CCCC(C)C1 (repeat unit) | 89.00
*c1ccc2c(c1)C(CC(CC)CCCC)(CC(CC)CCCC)c1cc(*)ccc1-2 (repeat unit) | 44.00 ± 21
